In patent US20260325510A1, “COMBINATIONS COMPRISING AN ATR INHIBITOR AND A PARP INHIBITOR AND METHODS OF USE THEREOF” (Jazz Pharmaceuticals Therapeutics, Inc., priority 2023, published 2026):

Experiments:
[1] = Hematology tolerability study; type: in vivo, female C57BL/6 mice; conditions: free ATR inhibitor in combination with free niraparib
Experimental: In order to study the effects of hematology tolerability under different dosing regimens, 8-12 week old, female C57BL/6 mice were used. Body weight was measured qd×5, then biweekly to the end of the study. Animals were weighed and monitored for survival and in-life observations were collected at the time of weight measurement. […] Mice were monitored individually to endpoint which was 18 days. Full volume blood was collected by terminal cardiac puncture under isoflurane anesthesia and analyzed for reticulocyte count/number, red blood cell count/number, hemoglobin, hematocrit, platelet count/number, white blood cell count/number, neutrophil count/number, monocyte count/number and lymphocyte count/number.

[2] = Baseline monotherapy tolerability, 4 weeks IV (complete blood count); type: in vivo, female athymic nude mice; conditions: 60 mg/kg IV, three times weekly
Experimental: Maximum tolerated dose studies were conducted on healthy, 6-8 week-old female athymic nude mice (Jackson Laboratories). For baseline monotherapy tolerability, 60 mg/kg of niraparib both in free and liposomal form was IV administered to nude mice at a dosing schedule of every other day followed by a two-day holiday (i.e., three days per week) for 4-weeks (n=5 for each cohort). Free drug was supplied in hydroxybetacyclodextrin in HEPES Buffered Saline with 5% dextrose, pH adjusted to 7.4. Study mice were then sacrificed at 24-hours post final injection with endpoint blood collection by cardiac puncture. Complete blood count (CBC) was then conducted on a Vetscan HM5 hematology analyzer (Zoetis, New Jersey, USA).
This study was conducted over a 4-week period to better capture hematopoietic turnover. Athymic nude mice were selected due to the presence of normal levels of neutrophils, monocytes, and red blood cells on top of a reduced number of non-functional lymphocytes. The immunocompromised nature of athymic nude mice allowed for better comparative translation of dose sensitivity to fully immunocompromised mice (i.e. NSG) that are required for xenograft studies.

## CNCc1ccc(-c2cc(-c3nc(-c4ccc(S(=O)(=O)C(C)C)cc4)cnc3N)on2)cc1 [berzosertib]
[1]
  hematological toxicity: severe reticulocytopenia and leukopenia

## NC(=O)c1cccc2cn(-c3ccc([C@@H]4CCCNC4)cc3)nc12 [FREE-NIRB, niraparib]
[2]
  hematological toxicity: significant hematological toxicity in the form of macrocytic anemia
